The record followed here is US20100310653A1, “USE OF AN EXTRACT MADE OF LEAVES OF GINKGO BILOBA” (DR. WILLMAR SCHWABE GMBH & CO. KG, priority 2007, published 2010).

The data set can be described thus: Concentration of lead substances in blood plasma against time after 120 mg Ginkgo extract tablet. As to conditions: humans, one tablet with 120 mg Ginkgo extract, means of 12 test persons, FIG. 1. From the text:
The presented values are means of 12 test persons. The administered amount is equal to the daily maximum dose, recommended by the monograph.

As to `CC(C)(C)[C@]1(O)CC2OC(=O)CC23C(=O)OC2OC(=O)[C@H](O)C231` (stereo partly shown) [bilobalide], the “concentration in blood plasma 12 hours after intake” value is reported as “very little concentrations”.
